Data: patent US11753411B2, “Substituted pyrazolo[1,5-a]pyrimidines as TYK2 pseudokinase ligands” (Ventyx Biosciences, Inc., priority 2019, dated 2023)

Test system: IFN-a/Jak1 Tyk2
Assay: Co-stimulation assay in lysed whole blood: IFNa (JAK1/TYK2) stimulated STAT1 phosphorylation
Type: cell-based
Conditions: Homo sapiens, 20 min, 100 ng/mL IFNa (with 10 ng/mL GM-CSF), pSTAT by flow cytometry
Description: Example 12: Co-Stimulation Assay in Lysed Whole Blood; JAK2: GM-CSF Stimulated STAT5 Phosphorylation and JAK1/TYK2 Stimulated STAT1 Phosphorylation Assay
Human Blood Lysis Using Abcam's RBC Lysis Buffer
Dilute RBC lysis buffer to 1× in distilled water. Add 2 mL blood to 38 mL of 1×RBC-lysis buffer. Incubate for 15 mins at RT, in dark. Spin at 300 g, 5 mins, to collect the pellet. Re-lyse if necessary. Re-suspend pellet in 5 mL of cRPMI.
Compound and Cytokine Treatment
Aliquot 80 μL of lysed human blood in to wells of 96 deep-well plate. Add 10 μl of (10× conc.) of different concentrations of compounds to all wells except controls (unstained and unstimulated) and mix it with the help of 100 uL multichannel. Add 10 uL of RPMI media in controls. For dilution of compounds and dilution range please refer Appendix. Incubate on water bath or CO2 incubator for 1 hour at 37° C. Add 10 μl of (10× conc.) of cytokine mix (GM-CSF and IFNa) (final conc.10 ng/mL of GM-CSF and 100 ng/mL of IFNa) to each well except unstimulated and unstained controls and incubate further for 20 minutes on water bath at 37° C.
Add 900 μL of prewarmed 1× Fix/Lyse solution (Appendix) and mix it properly using 1000 μl multichannel, incubate further on water bath at 37° C. for 10 minutes (which includes time of addition). Centrifuge at 800×g for 5 minutes at 40° C.; remove 900 uL of supernatant and add 900 μL of 1×PBS. Centrifuge at 800×g for 5 minutes at 40° C., remove 900 μL of supernatant. Wash one more time with 900 μL of PBS (optional) and resuspend pellets in 100 uL of PBS.
Disrupt the pellet by gentle tapping and resuspend in 1000 μL of BD Phosflow Perm Buffer III and incubate plate on ice for 30 minutes. Centrifuge plate at 800×g for 5 minutes at 40° C. Wash two more times with 1000 μL of BD Pharmingen Stain Buffer.
Disrupt the pellet by gentle tapping. Resuspend pellets in 100 uL of Stain Buffer and add 5 μL of pSTAT5_AF488 Ab and 5 uL of pSTAT_PE in all wells except unstained control and mix properly using 200 μl multichannel, incubate overnight at […]. Add 900 μL of wash buffer and centrifuge at 1800 rpm for 3 minutes at 40° C. Wash one more time with 1000 μL of BD Pharmingen Stain Buffer. Finally resuspend the pellet in 300 uL of BD Pharmingen Stain Buffer. Transfer the cells to 96-well v-bottom plate and acquire the cells in Beckman Coulter CytExpert. Acquiring cells in Flow Cytometer: Keep the threshold value to 250 and cell concentration should not exceed 100-500 cells/μL. Acquire at least 5,000-10,000 cells.
RPMI 1640 Complete Medium: RPMI 1640 media+10% FBS.
Cytokine dilution: 1) GM-CSF Stock at 100 ug/mL. Prepare an intermediate dilution of 1 ug/mL by adding 2 uL of stock into 198 uL of cRPMI. Further dilute to 100 ng/mL by adding 100 uL of the intermediate stock to 900 uL of cRPMI. 2) IFNa Stock at 200 ug/mL. Dilute IFNa stock 1:200 by adding 5 uL of stock into the 1000 uL of 100 ng/mL GM-CSF working stock as above to give a combined working stock of 1000 ng/mL of IFNa and 100 ng/mL GM-CSF (10×). Keep it on ice until used.
Lyse/Fix buffer preparation: Dilute 5× Lyse/Fix buffer to 1× using MQ water and keep at 37° C. until used.
BD Phosflow perm buffer III: Keep on ice/fridge.

| IC50 [nM] | Compound |
| --- | --- |
| ≥ 10000 | CNc1cc(Nc2c(F)ccc3c2OCCO3)nc2c(NC(=O)N[C@@H]3C[C@@H]3F)cnn12 [Compound 175, 1-(5-((6-fluoro-2,3-dihydrobenzo[b][1,4]dioxin-5-yl)amino)-7-(methylamino)pyrazolo[1,5-a]pyrimidin-3-yl)-3-((1R,2S)-2-fluorocyclopropyl)urea] |
| 1000 to 10000 | CNc1cc(Nc2cc(F)cc3c2OC[C@H](CO)O3)nc2c(NC(=O)N[C@@H]3C[C@@H]3F)cnn12 [Compound 185, 1-(5-(((S)-7-fluoro-2-(hydroxymethyl)-2,3-dihydrobenzo[b][1,4]dioxin-5-yl)amino)-7-(methylamino)pyrazolo[1,5-a]pyrimidin-3-yl)-3-((1R,2S)-2-fluorocyclopropyl)urea] |
| < 1000 | CNc1cc(Nc2cc(Cl)cc3c2OCCO3)nc2c(NC(=O)NC3CC3)cnn12 [Compound 85, 1-(5-((7-chloro-2,3-dihydrobenzo[b][1,4]dioxin-5-yl)amino)-7-(methylamino)pyrazolo[1,5-a]pyrimidin-3-yl)-3-cyclopropylurea] |
| < 1000 | CNc1cc(Nc2cc(F)cc3c2OCCO3)nc2c(NC(=O)NCC(N)=O)cnn12 [Compound 118, 2-(3-(5-((7-fluoro-2,3-dihydrobenzo[b][1,4]dioxin-5-yl)amino)-7-(methylamino)pyrazolo[1,5-a]pyrimidin-3-yl)ureido)acetamide] |
| < 1000 | CNc1cc(Nc2cccc3c2OCCO3)nc2c(NC(=O)NC3CC(F)C3)cnn12 (stereo not shown) [Compound 35, 1-(5-((2,3-dihydrobenzo[b][1,4]dioxin-5-yl)amino)-7-(methylamino)pyrazolo[1,5-a]pyrimidin-3-yl)-3-(3-fluorocyclobutyl)urea] |
| < 1000 | CNc1cc(Nc2cc(C)cc(C)c2)nc2c(NC(=O)NCC#N)cnn12 [Compound 128, 1-(cyanomethyl)-3-(5-((3,5-dimethylphenyl)amino)-7-(methylamino)pyrazolo[1,5-a]pyrimidin-3-yl)urea] |
| < 1000 | CNC(=O)Nc1cnn2c(NC)cc(Nc3ccccc3OC)nc12 [Compound 149, 1-(5-((2-methoxyphenyl)amino)-7-(methylamino)pyrazolo[1,5-a]pyrimidin-3-yl)-3-methylurea] |
| 1000 to 10000 | CNc1cc(Nc2cccc3c2OCCO3)nc2c(NC(=O)NC3CCC3C#N)cnn12 (stereo not shown) [Compound 43, 1-(2-cyanocyclobutyl)-3-(5-((2,3-dihydrobenzo[b][1,4]dioxin-5-yl)amino)-7-(methylamino)pyrazolo[1,5-a]pyrimidin-3-yl)urea] |
| 1000 to 10000 | CNC(=O)Nc1cnn2c(NC)cc(-c3cn(C)c4ncccc34)nc12 [Compound 74, 1-methyl-3-(5-(1-methyl-1H-pyrrolo[2,3-b]pyridin-3-yl)-7-(methylamino)pyrazolo[1,5-a]pyrimidin-3-yl)urea] |
| 1000 to 10000 | CNC(=O)Nc1cnn2c(NC)cc(Nc3c(F)cccc3F)nc12 [Compound 90, 1-(5-((2,6-difluorophenyl)amino)-7-(methylamino)pyrazolo[1,5-a]pyrimidin-3-yl)-3-methylurea] |
| < 1000 | CNc1cc(Nc2cc(F)cc3c2OCCO3)nc2c(NC(=O)NC(C)C#N)cnn12 (stereo not shown) [Compound 120, 1-(1-cyanoethyl)-3-(5-((7-fluoro-2,3-dihydrobenzo[b][1,4]dioxin-5-yl)amino)-7-(methylamino)pyrazolo[1,5-a]pyrimidin-3-yl)urea] |
| < 1000 | CNc1cc(Nc2cc(F)cc3c2OCCO3)nc2c(NC(=O)NCCC(F)F)cnn12 [Compound 178, 1-(3,3-difluoropropyl)-3-(5-((7-fluoro-2,3-dihydrobenzo[b][1,4]dioxin-5-yl)amino)-7-(methylamino)pyrazolo[1,5-a]pyrimidin-3-yl)urea] |
| < 1000 | CNc1cc(Nc2cc(F)cc3c2OCCO3)nc2c(NC(=O)N[C@@H]3C[C@@H]3C#N)cnn12 [Compound 51, 1-((1R,2S)-2-cyanocyclopropyl)-3-(5-((7-fluoro-2,3-dihydrobenzo[b][1,4]dioxin-5-yl)amino)-7-(methylamino)pyrazolo[1,5-a]pyrimidin-3-yl)urea] |
| < 1000 | CNC(=O)Nc1cnn2c(NC)cc(Nc3cc(OC)cc(OC)c3)nc12 [Compound 70, 1-(5-((3,5-dimethoxyphenyl)amino)-7-(methylamino)pyrazolo[1,5-a]pyrimidin-3-yl)-3-methylurea] |
| < 1000 | CNc1cc(Nc2cc(F)cc3c2OCCO3)nc2c(NC(=O)NCC#N)cnn12 [Compound 114, 1-(cyanomethyl)-3-(5-((7-fluoro-2,3-dihydrobenzo[b][1,4]dioxin-5-yl)amino)-7-(methylamino)pyrazolo[1,5-a]pyrimidin-3-yl)urea] |
| < 1000 | CNc1cc(Nc2cccc3cccnc23)nc2c(NC(=O)N[C@@H]3C[C@@H]3F)cnn12 [Compound 39, 1-((1R,2S)-2-fluorocyclopropyl)-3-(7-(methylamino)-5-(quinolin-8-ylamino)pyrazolo[1,5-a]pyrimidin-3-yl)urea] |
| ≥ 10000 | CNC(=O)Nc1c(F)nn2c(NC)cc(Nc3cccc4c3OCCO4)nc12 [Compound 110, 1-(5-((2,3-dihydrobenzo[b][1,4]dioxin-5-yl)amino)-2-fluoro-7-(methylamino)pyrazolo[1,5-a]pyrimidin-3-yl)-3-methylurea] |
| 1000 to 10000 | CNc1cc(Nc2cccnc2OC(F)F)nc2c(NC(=O)N[C@@H]3C[C@@H]3F)cnn12 [Compound 171, 1-(5-((2-(difluoromethoxy)pyridin-3-yl)amino)-7-(methylamino)pyrazolo[1,5-a]pyrimidin-3-yl)-3-((1R,2S)-2-fluorocyclopropyl)urea] |
| 1000 to 10000 | CNc1cc(Nc2cccc3c2OCCO3)nc2c(NC(=O)NCC3CC3)cnn12 [Compound 103, 1-(cyclopropylmethyl)-3-(5-((2,3-dihydrobenzo[b][1,4]dioxin-5-yl)amino)-7-(methylamino)pyrazolo[1,5-a]pyrimidin-3-yl)urea] |
| < 1000 | C#Cc1cc(Nc2cc(NC)n3ncc(NC(=O)NC)c3n2)c2c(c1)OCCO2 [Compound 109, 1-(5-((7-ethynyl-2,3-dihydrobenzo[b][1,4]dioxin-5-yl)amino)-7-(methylamino)pyrazolo[1,5-a]pyrimidin-3-yl)-3-methylurea] |
| < 1000 | C#CCNC(=O)Nc1cnn2c(NC)cc(Nc3cc(F)cc4c3OCCO4)nc12 [Compound 111, 1-(5-((7-fluoro-2,3-dihydrobenzo[b][1,4]dioxin-5-yl)amino)-7-(methylamino)pyrazolo[1,5-a]pyrimidin-3-yl)-3-(prop-2-yn-1-yl)urea] |
| ≥ 10000 | CNC(=O)Nc1cnn2c(NC)cc(Nc3ccccc3S(C)(=O)=O)nc12 [Compound 156, 1-methyl-3-(7-(methylamino)-5-((2-(methylsulfonyl)phenyl)amino)py-razolo[1,5-a]pyrimidin-3-yl)urea] |
| < 1000 | CNC(=O)Nc1cnn2c(NC)cc(Nc3cc(C4CC4)cc4c3OCCO4)nc12 [Compound 96, 1-(5-((7-cyclopropyl-2,3-dihydrobenzo[b][1,4]dioxin-5-yl)amino)-7-(methylamino)pyrazolo[1,5-a]pyrimidin-3-yl)-3-methylurea] |
| < 1000 | CNC(=O)Nc1cnn2c(NC)cc(Nc3cc(F)cc4c3OCCO4)nc12 [Compound 65, 1-(5-((7-fluoro-2,3-dihydrobenzo[b][1,4]dioxin-5-yl)amino)-7-(methylamino)pyrazolo[1,5-a]pyrimidin-3-yl)-3-methylurea] |
| < 1000 | [2H]C([2H])([2H])Nc1cc(Nc2cccc3c2OCCO3)nc2c(NC(=O)NC)cnn12 [Compound 13, 1-(5-((2,3-dihydrobenzo[b][1,4]dioxin-5-yl)amino)-7-((methyl-d3)amino)pyrazolo[1,5-a]pyrimidin-3-yl)-3-methylurea] |
